Assay results from PubChem BioAssay AID179 (DTP/NCI, 2004).
Active and inactive are the calls of the source.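 Rule for the calls: active = compounds giving half or more protection of infected cells from virus-caused growth loss, again on retest; inactive = the rest.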

Tested on: CEM cells HIV-1 protection, formazan growth assay
Test: NCI AIDS Antiviral Assay
Details: for IC50: measured here: growth of uninfected CEM cells
Experimental: The ability of compounds to protect human CEM cells from HIV-1 infection is measured as a screen for new compounds capable of inhibiting the HIV virus. Five concentrations of drug were tested on uninfected and infected cells and cell growth was measured using a soluble formazan assay. […] Compounds that provided at least 50% protection were retested. Compounds that provided at least 50% protection on retest were listed as moderately active. Compounds that reproducibly provided 100% protection were listed as confirmed active. […] Note that the inability to provide protection could be due to toxicity.

Compound	EC50 [µM]	IC50 [µM]	outcome
C1CNCCNCCN1	> 200	> 200	–
C[C@]12CCC(=O)C(O)=C1CC[C@@H]1C2CC[C@]2(C)NC(=O)CCC12 (stereo partly drawn)	> 40.7	> 40.7	–
CC1=C(C)C(N2CCOCC2)CS(=O)(=O)O1 (stereo not drawn)	> 200	> 200	–
CCc1nnc2sc3c(Cl)c4nn5c(CC)nnc5sc4c(Cl)c3nn12	> 200	11.7	–
O=c1[nH]nc(Nc2ccc(Cl)cc2)c2nnn(C3CCCCC3)c12	> 200	> 200	–
CC(=O)NC1(C)CCC(C(C)(C)NC(C)=O)CC1 (stereo not drawn)	> 200	> 200	–
Cc1cccc(C)c1NC(=O)CCCC(=O)C(C#N)c1ccc(Cl)cc1 (stereo not drawn)	> 135	> 135	–
Nc1ccc(F)cc1-c1nc2ccc(F)cc2c2nc3ccccc3n12	–	–	inactive
CC(=O)OC1CC2C(C)(C)CCC[C@]2(C=O)C2=C1C(O)=C(C(C)C)C(=O)C2=O (stereo partly drawn)	–	–	inactive
CN(C)CCCCNc1c2c(nc3c(Cl)cccc13)CCC2	> 794	16.6	–
Cc1cc(C)[n+]([O-])c(C)c1	> 1820	977	–
CC(=O)Nc1ccc(S(=O)(=O)N/N=C(/C)C2CCOC2=O)cc1 (stereo not drawn)	> 741	> 741	–
CCOc1ccccc1NC(=O)C1=C(C)NC(C)=C(C(=O)Nc2ccccc2OCC)C1c1ccc2c(c1)OCO2	> 12.9	> 12.9	–
Cc1cc2c(-c3ccccc3)c3cc(C)c(N)cc3nc2cc1N	> 200	2.75	–
CN1C(=O)CC2CCC(=O)N2c2cccnc21 (stereo not drawn)	> 200	> 200	–
CC1(C)OC2[C@@H](CO[C@@]3([C@H]4OC(C)(C)O[C@@H]4CO)OC(C)(C)O[C@@H]23)O1 (stereo partly drawn)	> 200	> 200	–
CCOC(=O)N1c2c(ccn2C)-c2ccn(C)c2N1C(=O)OCC	> 15.1	5.89	–
NC(N)=NNC(O)(C(=O)O)C(=O)O	> 200	> 200	–
CC(=O)OC1=C2CC3(C)OC(=O)CC(C)(C)C3=CC=C2C=C(C(C)C)C1=O (stereo not drawn)	–	–	inactive
N=c1n(CC(=O)NC23CC4CC(CC(C4)C2)C3)c2ccccc2n1Cc1ccccc1	> 79.4	14.1	–
CC1=CC(C(=O)O)P(C)(=O)C1 (stereo not drawn)	–	–	inactive

Compound	EC50 [µM]	IC50 [µM]	outcome
CN1C(=O)/C(=C2\SC(=O)N(CN3CCOCC3)C2=O)c2cc(Br)ccc21	> 200	26.3	–
O=C(c1ccccc1)C1(C(=O)c2ccccc2)/C(=N\O)C2CCC1C2 (stereo not drawn)	> 53.7	20.9	–
CCC[CH2][Sn]([CH2]CCC)([O]C(=O)c1cc(OC)c(OC)c(OC)c1)[O]C(=O)c1cc(OC)c(OC)c(OC)c1	> 11	1.45	–
CC(=O)Oc1ccc2cc(-c3ccc(OC(C)=O)c(OC(C)=O)c3)c(=O)oc2c1	> 200	64.6	–
CC(=O)OCC(=O)[C@@]1(O)CC[C@H]2[C@@H]3C[C@H](C)C4=CC(=O)C=C[C@]4(C)[C@@]3(F)[C@@H](O)C[C@@]21C	–	–	inactive
Cc1cn(C2CC(Br)C(COC(c3ccccc3)(c3ccccc3)c3ccccc3)O2)c(=O)[nH]c1=O (stereo not drawn)	> 200	13.8	–
C=CCOc1ccc(C2(c3ccc(OCC=C)cc3)C(=O)Nc3ccccc32)cc1	> 200	44.7	–
[Cl][Bi]([Cl])([c]1ccccc1)([c]1ccccc1)[c]1ccccc1	> 19.5	3.39	–
Cc1cc2c(cc1Br)C1(C)CCC(C)C1(C)O2 (stereo not drawn)	> 50.1	> 50.1	–
c1ccc2nn(C3CCCO3)nc2c1 (stereo not drawn)	> 200	> 200	–
O=C(O)c1c([N+](=O)[O-])cc(C(F)(F)F)cc1[N+](=O)[O-]	–	–	inactive
COc1cc(/C=C2/C(=O)N(C(=O)c3ccccc3O)N=C2C)cc(OC)c1OC	> 47.9	0.24	–
Cc1cc(=O)n(-c2ccccc2)c(=S)n1-c1nc2ccccc2[nH]1	> 107	63.1	–
COc1cc(C=NC2CCCCC2)cc(OC)c1OC	> 182	95.5	–
CCCCCCCCCCCCC(N=[N+]=[N-])C(=O)OCC1OC(n2cc(C)c(=O)[nH]c2=O)CC1O (stereo not drawn)	> 20.4	> 20.4	–
CC(C)(C)c1ccc(SSc2ccc(C(C)(C)C)cc2)cc1	> 200	12.3	–
O=C1c2ccccc2C(=O)C1C(c1ccc(F)cc1)C1C(=O)c2ccccc2C1=O	> 46.8	36.3	–
O=S1(=O)Cc2ccc3c4c2-c2c(ccc5ccc(c-4c25)CS(=O)(=O)C3)C1	> 200	17	–
Oc1cc(OCCCc2ccc(F)cc2)cc2ccc3ccccc3c12	> 55	31.6	–
N=c1ccn2c(n1)OC1C(OP(=O)(O)O)C(CO)OC12 (stereo not drawn)	> 200	0.437	–
COC(=O)N1C=NC2C3(C)C(C)=C(C)C3(C)C21C (stereo not drawn)	> 263	151	–

Compound	EC50 [µM]	IC50 [µM]	outcome
Oc1[nH]c2ccccc2c1N=NC(=S)Nc1ccccc1Cl	> 200	1.51	–
O=C(O)CC1C(=O)OC2C3COC(=O)c4cc(O)c(O)c(O)c4-c4c(cc(O)c(O)c4O)C(=O)OC2C(OC(=O)c2cc(O)c(O)c4c2C1C(O)C(=O)O4)C(OC(=O)c1cc(O)c(O)c(O)c1)O3 (stereo not drawn)	3.31	18.6	–
Cc1nc2[nH]c(=S)[nH]c(=O)c2[nH]c1=O	> 200	> 200	–
CC(CN1CCCC1)C(O)(Cc1ccccc1)c1ccc(Cl)cc1 (stereo not drawn)	> 200	30.9	–
COc1cc(/C=C/C(=O)c2sc(NNC(C)=O)nc2C)ccc1O	> 20.9	> 20.9	–
O=C1CCCc2ccc([N+](=O)[O-])c(O)c21	–	–	inactive
CCC1Sc2cc(OC)cc(NC=O)c2NC1=O (stereo not drawn)	174	> 200	–
N#Cc1cnn2c1n[n+]([O-])c1ccc(Cl)cc12	> 100	7.76	–
CCOC(=O)c1c[nH]cc1-c1cn(S(=O)(=O)c2ccccc2)cc1C	> 200	50.1	–
O=C1CCC(C(Sc2ccccc2)(Sc2ccccc2)Sc2ccccc2)C1 (stereo not drawn)	> 200	38.9	–
C=C1CCC([N+](=O)[O-])[C@](C)(N=O)CC[C@@H]2C1CC2(C)C (stereo partly drawn)	> 200	17	–
CCC(=O)N(C)[C@@H](C)C(=O)O[C@H]1CC(=O)N(C)c2cc(cc(OC)c2Cl)C/C(C)=C/C=C[C@@H](OC)[C@@]2(O)C[C@H](OC(=O)N2)[C@@H](C)[C@@H]2O[C@@]12C	–	–	inactive
N#CC1(C#N)C(c2ccccc2)C=CC(c2ccc([N+](=O)[O-])cc2)C1(C#N)C#N (stereo not drawn)	> 200	3.55	–
Cc1cnc2nc(N)nc(N)c2n1	> 200	> 200	–
Cc1ccc(S(=O)(=O)/N=C2/N(C)CCCS2(=O)=O)cc1	> 200	> 200	–
c1ccc(CN[C@]23C4C5CC6C7C5C2C7[C@@](NCc2ccccc2)(C64)N3Cc2ccccc2)cc1 (stereo partly drawn)	> 200	105	–
CCN(CC)CCOC(=O)c1cc2ccccc2n1-c1ccccc1	> 200	79.4	–
COc1ccc(C(=O)C(C(=O)CCC(=O)Nc2cccc(C(F)(F)F)c2)c2ccccc2)cc1 (stereo not drawn)	> 11.2	> 11.2	–
FC(F)(F)c1cccnc1Sc1nc2ccccc2s1	> 200	38	–
CCCCCCCCCCCc1c2oc3ccc(C)cc3[nH]c-2cc(=O)c1=O	> 4.68	> 4.68	–
Cc1noc(C)c1CCCOC1COc2ccccc2OCCOCCOc2ccccc2OC1	> 100	> 100	–
